Assay results taken from patent US20160039802A1, “3-PYRIMIDIN-4-YL-OXAZOLIDIN-2-ONES AS INHIBITORS OF MUTANT IDH” (NOVARTIS AG, priority 2013, published 2016).

target: T1, IDH1 (R132H) mutant (Homo sapiens, UniProt O75874, R132H); test: Fluorescence biochemical assay (NADPH oxidation); conditions: mIDH R132H 10 nM, 10 μM NADPH, 100 μM α-KG; range where run multiple times
T1 construct: His6 with PreScission site (N, cleaved yes); made in house; host or cells: E. coli Rosetta 2(DE3)
Protocol: The IDH1 (R132H) mutant catalyzes the reduced form of NADP+ (NADPH) and α-ketoglutarate (α-KG) to form nicotinamide adenine dinucleotide phosphate (NADP+) and R(−)-2-hydroxyglutarate (2HG). […] Reactions were monitored using the Perkin-Elmer Envision, Model 2101. […] The final reaction mixture contained 2.5% DMSO and test compounds with concentrations ranging 0.0000008-25 μM. The IDH1 (R132H) enzyme was used at a final concentration of 10 nM. Curve fitting for dose response […] determinations was done in the Helios module of the software package DAVID. The 4-parameter logistic model was used: y=min+((max−min)/1+(x/IC50)^shape)

T1 sequence (O75874 whole entry R132H): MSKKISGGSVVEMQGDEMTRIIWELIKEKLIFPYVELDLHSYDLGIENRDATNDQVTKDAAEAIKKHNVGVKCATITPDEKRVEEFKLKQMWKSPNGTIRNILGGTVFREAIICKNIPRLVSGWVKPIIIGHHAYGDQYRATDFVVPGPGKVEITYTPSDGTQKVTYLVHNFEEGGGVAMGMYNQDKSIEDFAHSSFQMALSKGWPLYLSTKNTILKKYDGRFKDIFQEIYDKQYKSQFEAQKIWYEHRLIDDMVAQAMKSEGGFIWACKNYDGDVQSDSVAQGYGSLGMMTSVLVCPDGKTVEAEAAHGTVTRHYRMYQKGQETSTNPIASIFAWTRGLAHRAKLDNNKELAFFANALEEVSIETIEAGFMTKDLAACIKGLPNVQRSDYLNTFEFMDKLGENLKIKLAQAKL

| SMILES | IC50 [nM] |
| --- | --- |
| C[C@H](Nc1nc(F)cc(N2C(=O)OC[C@@H]2C2CC2)n1)c1ccccc1 [Example 1, (S)-4-cyclopropyl-3-(6-fluoro-2-((S)-1-phenylethylamino)pyrimidin-4-yl)oxazolidin-2-one] | 365 |
| C[C@H](Nc1nc(Cl)cc(N2C(=O)OC[C@@H]2C2CC2)n1)c1ccccc1 [Example 2, (S)-3-(6-chloro-2-((S)-1-phenylethylamino)pyrimidin-4-yl)-4-cyclopropyloxazolidin-2-one] | 316 |
| C[C@H](Nc1nc(Cl)cc(N2C(=O)OC[C@@H]2C2CC2)n1)c1nnc(-c2ccc(Cl)cc2)s1 [Example 4, (S)-3-(6-chloro-2-(((S)-1-(5-(4-chlorophenyl)-1,3,4-thiadiazol-2-yl)ethyl)amino)pyrimidin-4-yl)-4-cyclopropyloxazolidin-2-one] | 24.8 |
| C[C@H](Nc1nc(Cl)cc(N2C(=O)OC[C@@H]2C2CC2)n1)c1cnn(-c2ccc(Cl)cc2)c1 [Example 5, (S)-3-(6-chloro-2-(((S)-1-(1-(4-chlorophenyl)-1H-pyrazol-4-yl)ethyl)amino)pyrimidin-4-yl)-4-cyclopropyloxazolidin-2-one] | 33.2 |
| C[C@H](Nc1nc(Cl)cc(N2C(=O)OC[C@@H]2C2CC2)n1)c1cnc(N2CCOCC2)s1 [Example 6, (S)-3-(6-chloro-2-(((S)-1-(2-morpholinothiazol-5-yl)ethyl)amino)pyrimidin-4-yl)-4-cyclopropyloxazolidin-2-one] | 934 |
| Cc1cc(N2C(=O)OC[C@@H]2C2CC2)nc(N[C@H](C)c2cn(-c3ccc(Cl)cc3)nn2)n1 [Example 12, (S)-3-(2-(((R)-1-(1-(4-chlorophenyl)-1H-1,2,3-triazol-4-yl)ethyl)amino)-6-methylpyrimidin-4-yl)-4-cyclopropyloxazolidin-2-one] | 323 |
| Cc1ccc(-c2ncc([C@H](C)Nc3nc(C)cc(N4C(=O)OC[C@@H]4C4CC4)n3)s2)cn1 [Example 13, (S)-4-cyclopropyl-3-(6-methyl-2-(((S)-1-(2-(6-methylpyridin-3-yl)thiazol-5-yl)ethyl)amino)pyrimidin-4-yl)oxazolidin-2-one] | 191 |
| C[C@H](Nc1nccc(N2C(=O)OC[C@@H]2C2CC2)n1)c1cnc(-c2ccc(C(F)(F)F)nc2)s1 [Example 14, (S)-4-cyclopropyl-3-(2-(((S)-1-(2-(6-(trifluoromethyl)pyridin-3-yl)thiazol-5-yl)ethyl)amino)pyrimidin-4-yl)oxazolidin-2-one] | 49.1 |
| C[C@H](Nc1nccc(N2C(=O)OC[C@@H]2C2CC2)n1)c1cnc(-c2ccnc(C(F)(F)F)c2)s1 [Example 15, (S)-4-cyclopropyl-3-(2-(((S)-1-(2-(2-(trifluoromethyl)pyridin-4-yl)thiazol-5-yl)ethyl)amino)pyrimidin-4-yl)oxazolidin-2-one] | 108 |
| C[C@H](Nc1nccc(N2C(=O)OC[C@@H]2C2CC2)n1)c1cnc(-c2ccc(C(F)F)cc2)s1 [Example 16, (S)-4-cyclopropyl-3-(2-(((S)-1-(2-(4-(difluoromethyl)phenyl)thiazol-5-yl)ethyl)amino)pyrimidin-4-yl)oxazolidin-2-one] | 29.2 |
| C[C@H](Nc1nccc(N2C(=O)OC[C@@H]2C2CC2)n1)c1ccn(-c2ccc(C(F)(F)F)nc2)n1 [Example 17, (S)-4-cyclopropyl-3-(2-(((S)-1-(1-(6-(trifluoromethyl)pyridin-3-yl)-1H-pyrazol-3-yl)ethyl)amino)pyrimidin-4-yl)oxazolidin-2-one] | 169 |
| C[C@H](Nc1ncc(F)c(N2C(=O)OC[C@@H]2C2CC2)n1)c1cnc(OCC(F)(F)F)c(Cl)c1 [Example 21, (S)-3-(2-((S)-1-(5-chloro-6-(2,2,2-trifluoroethoxy)pyridin-3-yl)ethylamino)-5-fluoropyrimidin-4-yl)-4-cyclopropyloxazolidin-2-one] | 1200 |
| C[C@H](Nc1ncc(F)c(N2C(=O)OC[C@@H]2C2CC2)n1)c1cnc(C(C)(F)F)c(Cl)c1 [Example 22, (S)-3-(2-((S)-1-(5-chloro-6-(1,1-difluoroethyl)pyridin-3-yl)ethylamino)-5-fluoropyrimidin-4-yl)-4-cyclopropyloxazolidin-2-one] | 1140 |
| C[C@H](Nc1nccc(N2C(=O)OC[C@@H]2C2CC2)n1)c1ccccc1 [Example 23, (S)-4-cyclopropyl-3-(2-((S)-1-phenylethylamino)pyrimidin-4-yl)oxazolidin-2-one] | 1370 |
| C[C@H](Nc1ncc(F)c(N2C(=O)OC[C@@H]2C2CC2)n1)c1ccccc1 [Example 24, (S)-4-cyclopropyl-3-(5-fluoro-2-((S)-1-phenylethylamino)pyrimidin-4-yl)oxazolidin-2-one] | 1190 |
| C[C@H](Nc1nccc(N2C(=O)OC[C@@H]2C2CC2)n1)c1cnc(OCC(F)(F)F)c(Cl)c1 [Example 25, (S)-3-(2-((S)-1-(5-chloro-6-(2,2,2-trifluoroethoxy)pyridin-3-yl)ethylamino)pyrimidin-4-yl)-4-cyclopropyloxazolidin-2-one] | 372 |
| C[C@H](Nc1nc(Cl)cc(N2C(=O)OC[C@@H]2C2CC2)n1)c1cn(-c2ccc(Cl)cc2)cn1 [Example 26, (S)-3-(6-chloro-2-(((S)-1-(1-(4-chlorophenyl)-1H-imidazol-4-yl)ethyl)amino)pyrimidin-4-yl)-4-cyclopropyloxazolidin-2-one] | 349 |
| C[C@H](Nc1nccc(N2C(=O)OC[C@@H]2C2CC2)n1)c1nc(-c2ccc(Cl)cc2)no1 [Example 28, (S)-3-(2-((S)-1-(3-(4-chlorophenyl)-1,2,4-oxadiazol-5-yl)ethylamino)pyrimidin-4-yl)-4-cyclopropyloxazolidin-2-one] | 62.7 |
| C[C@H](Nc1ncc(F)c(N2C(=O)OC[C@@H]2C2CC2)n1)c1nc(-c2ccc(Cl)cc2)no1 [Example 29, (S)-3-(2-((S)-1-(3-(4-chlorophenyl)-1,2,4-oxadiazol-5-yl)ethylamino)-5-fluoropyrimidin-4-yl)-4-cyclopropyloxazolidin-2-one] | 124 |
| C[C@H](Nc1nccc(N2C(=O)OC[C@]2(C)C2CC2)n1)c1ccc(CN2CCC(N3CCOCC3)CC2)c(F)c1 [Example 67, (S)-4-cyclopropyl-3-(2-(((S)-1-(3-fluoro-4-((4-morpholinopiperidin-1-yl)methyl)phenyl)ethyl)amino)pyrimidin-4-yl)-4-methyloxazolidin-2-one] | 33 |
| C[C@H](Nc1nccc(N2C(=O)OC[C@]2(C)C2CC2)n1)c1ccc(CN2CCC(N3CCOCC3)CC2)cc1 [Example 68, (S)-4-cyclopropyl-4-methyl-3-(2-(((S)-1-(4-((4-morpholinopiperidin-1-yl)methyl)phenyl)ethyl)amino)pyrimidin-4-yl)oxazolidin-2-one] | 96 |
| C[C@H](Nc1nccc(N2C(=O)OC[C@@H]2C2CC2)n1)c1ccc(CN2CCC(N(C)C)C(F)(F)C2)c(F)c1 (stereo partly drawn) [Example 69, (4S)-4-cyclopropyl-3-(2-(((1S)-1-(4-((4-(dimethylamino)-3,3-difluoropiperidin-1-yl)methyl)-3-fluorophenyl)ethyl)amino)pyrimidin-4-yl)oxazolidin-2-one] | 25 |

target: T2, Mutant IDH1 R132H (Homo sapiens, UniProt O75874, R132H); test: Mutant IDH1 biochemical assay: LC-MS detection of 2-HG; conditions: mIDH R132H […], 5 uM NADPH, 100 uM alpha-KG, 45 minutes incubation; range where run multiple times; further: mIDH R132H 0.25 nM, 5 µM NADPH
T2 construct: His6 with PreScission site (N, cleaved yes); made in house; host or cells: E. coli Rosetta 2(DE3)
Description: Mutant IDH1 biochemical Sssay: LC-MS Detection of 2-HG.

T2 sequence (O75874 whole entry R132H): as above

| SMILES | IC50 [nM] |
| --- | --- |
| C[C@H](Nc1nccc(N2C(=O)OCC2(C)C2CC2)n1)c1ccc(CN2CCN(C)CC2)cc1 (single isomer, unassigned) [Example 47] | 703 |
| C[C@H](Nc1nccc(N2C(=O)OCC2(C)C2CC2)n1)c1ccc(CN2CCN(C)CC2)cc1 (single isomer, unassigned) [Example 48] | 2660 |
| CC(Nc1nccc(N2C(=O)OC[C@]2(C)C2CC2)n1)c1nc(-c2ccc(Cl)cc2)no1 (single isomer, unassigned) [Example 49] | 2520 |
| CC(Nc1nccc(N2C(=O)OC[C@@]2(C)C2CC2)n1)c1nc(-c2ccc(Cl)cc2)no1 (single isomer, unassigned) [Example 51] | 3160 to 3260 |
| CC(Nc1nccc(N2C(=O)OC[C@@]2(C)C2CC2)n1)c1nc(-c2ccc(Cl)cc2)no1 (single isomer, unassigned) [Example 52] | 32.6 to 54 |
| Cc1cc(-c2cnc(C(C)Nc3nccc(N4C(=O)OC[C@]4(C)C4CC4)n3)nc2)ccc1F (single isomer, unassigned) [Example 54] | > 5000 |
| C[C@H](Nc1nccc(N2C(=O)OCC2(C)C2CC2)n1)c1ccc(CN2CCN(C)C(C)(C)C2)cc1 (single isomer, unassigned) [Example 55] | 77.9 |
| C[C@H](Nc1nccc(N2C(=O)OCC2(C)C2CC2)n1)c1ccc(CN2CCN(C)C(C)(C)C2)cc1 (single isomer, unassigned) [Example 56] | 527 |
| C[C@H](Nc1nccc(N2C(=O)OC[C@]2(C)C2CC2)n1)c1ccc(CN2CCC(C)(O)CC2)c(F)c1 [Example 31, (S)-4-cyclopropyl-3-(2-(((S)-1-(3-fluoro-4-((4-hydroxy-4-methylpiperidin-1-yl)methyl)phenyl)ethyl)amino)pyrimidin-4-yl)-4-methyloxazolidin-2-one] | 267 |
| C[C@H](Nc1nccc(N2C(=O)OC[C@]2(C)C2CC2)n1)c1ccc(CN2CCC(O)(C(F)(F)F)CC2)c(F)c1 [Example 32, (S)-4-cyclopropyl-3-(2-(((S)-1-(3-fluoro-4-((4-hydroxy-4-(trifluoromethyl)piperidin-1-yl)methyl)phenyl)ethyl)amino)pyrimidin-4-yl)-4-methyloxazolidin-2-one] | 13.3 |
